{
  "source": "patent US20100204295A1",
  "about": "“TREATMENT OF ALLERGIC DISEASE WITH IMMUNOMODULATOR COMPOUNDS” (SCICLONE PHARMACEUTICALS, INC., priority 2007, published 2010)",
  "key": {"[1]": {"test_system": "goblet cells in the epithelium of the bronchi", "assay": "Percentage of goblet cells in the epithelium of the bronchi, ovalbumin asthma model", "assay_type": "in vivo, mice of the Balb/C line", "description": "Female, non-pathogenic mice of the Balb/C line (“Pushchtino” laboratory animal breeders) were kept under conditions of an SPF-vivarium at a constant temperature, 12-hour day/night cycle, and received sterile feed and water ad libitum. In two series of experiments, mice from 6-8 weeks and 18-20 weeks of age were used at the beginning of the experiment, respectively. The animals were immunized twice at 5-day intervals with an ovalbumin solution (Sigma) in an adjuvant based on ammonium sulfate at a dosage of 8 μg per mouse. SCV-07 was administered intra-abdominally in a volume of 200 μL at a dosage of 0.1 or 1.0 μg/kg in PBS once a day from 6 through 11 days after the first immunization. The control group received physiological saline on the same days. Each group comprised 6 to 10 animals. On the 12th, 16th and 20th days after the first immunization, the animals were then placed in a hermetic box, in which an aerosol of 1% ovalbumin solution (OvA) in PBS was generated with an ultrasonic nebulizer LD-207U (Little Doctor) for 1 minute with continuous mixing of air. The duration of exposure of the animals to the aerosol was 15 minutes. […] The number of goblet and epithelial cells on the sections of the bronchi were calculated in no less than five visual fields on sections from the lungs from each animal and expressed as the percentage of the total number of cells."}, "anti-OvA IgE": {"test_system": "anti-OvA IgE", "assay": "Titer of anti-OvA IgE in serum and BAL by solid phase IFA, ovalbumin asthma model", "assay_type": "in vivo, mice of the Balb/C line", "settings": "for Titer IgE BAL, dilution 1:8, % of average of the control group / Titer IgE of serum, dilution 1:640, % of average of the control group: animals 6 to 8 weeks; for Titer IgE BAL, dilution 1:32, % of average of the control group / Titer IgE of serum, dilution 1:400, % of average of the control group: animals 18 to 20 weeks", "description": "Female, non-pathogenic mice of the Balb/C line (“Pushchtino” laboratory animal breeders) were kept under conditions of an SPF-vivarium at a constant temperature, 12-hour day/night cycle, and received sterile feed and water ad libitum. In two series of experiments, mice from 6-8 weeks and 18-20 weeks of age were used at the beginning of the experiment, respectively.\nThe animals were immunized twice at 5-day intervals with an ovalbumin solution (Sigma) in an adjuvant based on ammonium sulfate at a dosage of 8 μg per mouse. SCV-07 was administered intra-abdominally in a volume of 200 μL at a dosage of 0.1 or 1.0 μg/kg in PBS once a day from 6 through 11 days after the first immunization. The control group received physiological saline on the same days. Each group comprised 6 to 10 animals. On the 12th, 16th and 20th days after the first immunization, the animals were then placed in a hermetic box, in which an aerosol of 1% ovalbumin solution (OvA) in PBS was generated with an ultrasonic nebulizer LD-207U (Little Doctor) for 1 minute with continuous mixing of air. The duration of exposure of the animals to the aerosol was 15 minutes. Analysis of the severity of experimental allergic asthma was carried out 24 hours after the last aerosol exposure.\nThe peripheral blood was collected from the retro-orbital sinus. The titer of anti-OvA IgE in the serum and bronchoalveolar lavage was determined with solid phase IFA according to the following scheme. Rat antibodies to murine IgE labeled with biotin (Caltag) were introduced to a 96-well plate for IFA ((Corning Costar) in the dilution recommended by the manufacturer (100 μL/well), incubated for an hour at room temperature and washed. Serum samples or BAL were then introduced in successive dilutions and incubated at room temperature for an hour and washed. OvA was then added, labeled with horseradish peroxidase, incubated on a shaker for an hour at room temperature, washed and the substrate for peroxidase introduced (OPD, Sigma) and incubated for 15 minutes. The reaction was stopped by adding 1 M H2SO4 and the plates were analyzed on a Victor2 spectrophotometer (Wallac) at a wavelength of 450 nm. For quantitative comparison of the titers of the antigen-specific IgE after subtracting the background, we calculated the average optical density in each dilution for samples of the animal control group, and expressed the optical densities in the samples from all animals in the experiment in corresponding dilution as the percentages of the values obtained."}, "pollinosis": {"test_system": "pollinosis", "assay": "Case report: SCV-07 before specific immunotherapy of pollinosis", "assay_type": "in vivo, human", "settings": "SCV-07 perorally 1.5 mg once a day for 10 days, 15 days before SIT; season April-June 2006", "method": "Patient.—P-na M. N., 45 years. Date of first consultation—October 2004. From the end of November 2004 to mid-March 2005, the patient underwent specific immunotherapy (SIT) for pollinosis, using the allergoid (“Puretal-tree”) according to the scheme: subcutaneous once a week, beginning with a single dose of the administered allergoid of 0.025 mL, the subsequent dose are escalated during the course of treatment until reaching a single dose of 0.5 mL (0.025 mL-0.05 mL, −0.1 mL-0.2 mL-0.3 mL-0.4 mL-0.5 mL), and the following does are staying on this dose. Considering the above situation, during October 2005, to increase the clinical effectiveness of SIT, under initiating or anticipatory conditions, immune stimulation—a course of the preparation “SCV-07” —was perorally administered as follows: 1.5 mg once a day daily for 10 days in a row. On completion of the “SCV-07” course, the patient, from the middle of November 2005 through mid-March 2006, underwent another course of SIT for pollinosis, using the allergoid “Puretal-tree” according to the previous scheme. The interval between the “SCV-07” course and the beginning of the SIT course for pollinosis was 15 days."}},
  "data": [
    {"smiles": "N[C@H](CCC(=O)N[C@@H](Cc1c[nH]c2ccccc12)C(=O)O)C(=O)O", "note": "[SCV-07, γ-D-glutamyl-L-tryptophan]", "values": [
      {"measurement": "Reduction in the percentage of goblet cells in the epithelium of the bronchi vs control", "setting": "[1]; 0.1 μg/kg, significant vs control", "result": "more than two-fold reduction"},
      {"measurement": "% goblet cells of total number of cells (median, minimum-maximum)", "setting": "[1]; animals 6 to 8 weeks, 1 μg/kg", "result": "36.5 (3-92) %"},
      {"measurement": "Titer IgE BAL, dilution 1:8, % of average of the control group", "setting": "anti-OvA IgE; 0.1 μg/kg", "result": "59 ± 33 % of average of the control group"},
      {"measurement": "Titer IgE of serum, dilution 1:640, % of average of the control group", "setting": "anti-OvA IgE; 0.1 μg/kg", "result": "86 ± 42 % of average of the control group"},
      {"measurement": "Titer IgE BAL, dilution 1:8, % of average of the control group", "setting": "anti-OvA IgE; 1 μg/kg", "result": "46 ± 24 % of average of the control group"},
      {"measurement": "Titer IgE of serum, dilution 1:640, % of average of the control group", "setting": "anti-OvA IgE; 1 μg/kg", "result": "65 ± 26 % of average of the control group"},
      {"measurement": "Titer IgE BAL, dilution 1:32, % of average of the control group", "setting": "anti-OvA IgE; 0.1 μg/kg", "result": "85 ± 70 % of average of the control group"},
      {"measurement": "Titer IgE of serum, dilution 1:400, % of average of the control group", "setting": "anti-OvA IgE; 0.1 μg/kg", "result": "92 ± 44 % of average of the control group"},
      {"measurement": "Titer IgE BAL, dilution 1:32, % of average of the control group", "setting": "anti-OvA IgE; 1 μg/kg", "result": "101 ± 51 % of average of the control group"},
      {"measurement": "Titer IgE of serum, dilution 1:400, % of average of the control group", "setting": "anti-OvA IgE; 1 μg/kg", "result": "79 ± 46 % of average of the control group"},
      {"measurement": "Seasonal rhinoconjunctival symptoms after SIT preceded by SCV-07 course", "setting": "pollinosis", "result": "seasonal rhinoconjunctival symptoms were virtually absent"}
    ]}
  ]
}
